In the CheMixHub viscosity set:

Assay: xn = mol fraction of the nth substance listed

CCCCCl + CCCCCCCCCC
298 K, 101.3 kPa
Details | viscosity [mPa·s]
x2 = 0.1032 | 0.4681
x2 = 0.202 | 0.5006
x2 = 0.3087 | 0.5437
x2 = 0.3992 | 0.5768
x2 = 0.5065 | 0.6297
x2 = 0.5992 | 0.6636
x2 = 0.6974 | 0.7109
x2 = 0.7967 | 0.7607
x2 = 0.8968 | 0.811

Cc1ccccc1[N+](=O)[O-] + CO
298.15 K, 101 kPa
Details | viscosity [mPa·s]
x1 = 0.0021 | 0.5422
x1 = 0.0086 | 0.55
x1 = 0.0163 | 0.5579
x1 = 0.0287 | 0.5756
x1 = 0.0599 | 0.621
x1 = 0.0842 | 0.6536
x1 = 0.148 | 0.7466
x1 = 0.1606 | 0.7653
x1 = 0.2493 | 0.894
x1 = 0.2659 | 0.919
x1 = 0.3726 | 1.075
x1 = 0.4073 | 1.119
x1 = 0.4479 | 1.172
x1 = 0.5681 | 1.334
x1 = 0.6575 | 1.457
x1 = 0.7936 | 1.656
x1 = 0.8543 | 1.76
x1 = 0.9606 | 1.982

C1=CCCCC1 + ClC(Cl)Cl
303.15 K, 101 kPa
Details | viscosity [mPa·s]
x1 = 0.1005 | 0.62
x1 = 0.2478 | 0.604
x1 = 0.3282 | 0.595
x1 = 0.4351 | 0.585
x1 = 0.4917 | 0.581
x1 = 0.629 | 0.575
x1 = 0.7454 | 0.573
x1 = 0.8452 | 0.571

CCn1cc[n+](C)c1.N#C[S-] + CCOS(=O)(=O)[O-].CC[n+]1ccn(C)c1
100 kPa
Details | viscosity [mPa·s]
298.15 K, x2 = 0.0495 | 24.95
323.15 K, x2 = 0.571 | 25.65

O=C(O)c1cccc([N+](=O)[O-])c1 + CO
viscosity [mPa·s], 101 kPa
Details | x1 = 0.0362 | x1 = 0.0466 | x1 = 0.0506 | x1 = 0.0604 | x1 = 0.09126 | x1 = 0.1046
308.15 K | 0.8055 | 0.9203 | 0.9556 | – | 1.889 | 2.773
313.15 K | – | – | – | – | 1.727 | 2.425
318.15 K | – | – | – | – | 1.573 | 2.262
323.15 K | 0.646 | 0.7331 | 0.7603 | 0.8441 | 1.421 | 2.026

CCOC(=O)c1ccccc1 + C1COCCO1
viscosity [mPa·s], 101 kPa
Details | x1 = 0.0639 | x1 = 0.1304 | x1 = 0.1626 | x1 = 0.2849 | x1 = 0.3735 | x1 = 0.4716 | x1 = 0.5805 | x1 = 0.7048 | x1 = 0.8402
303.15 K | 1.118 | 1.155 | 1.172 | 1.246 | 1.296 | 1.369 | 1.445 | 1.535 | 1.633
308.15 K | 1.026 | 1.062 | 1.078 | 1.146 | 1.195 | 1.259 | 1.33 | 1.416 | 1.502
313.15 K | 0.972 | 1.001 | 1.013 | 1.069 | 1.108 | 1.16 | 1.214 | 1.279 | 1.348
